The text below walks through data of patent US7452896B2, “Pyrimidine-sulfamides and their use as endothelian receptor antagonist” (Actelion Pharmaceuticals Ltd., priority 2002, dated 2008).

pIC50: −log10 of the molar value. A value given as a limit tells only on which side of the number the result lay.

Assay [1] deals with T1, human recombinant ETA receptors (Homo sapiens, UniProt P25101).
T1 construct: expressed in transfected cells; host or cells: CHO cells (microsomal membranes)
T1 sequence (P25101 21-427): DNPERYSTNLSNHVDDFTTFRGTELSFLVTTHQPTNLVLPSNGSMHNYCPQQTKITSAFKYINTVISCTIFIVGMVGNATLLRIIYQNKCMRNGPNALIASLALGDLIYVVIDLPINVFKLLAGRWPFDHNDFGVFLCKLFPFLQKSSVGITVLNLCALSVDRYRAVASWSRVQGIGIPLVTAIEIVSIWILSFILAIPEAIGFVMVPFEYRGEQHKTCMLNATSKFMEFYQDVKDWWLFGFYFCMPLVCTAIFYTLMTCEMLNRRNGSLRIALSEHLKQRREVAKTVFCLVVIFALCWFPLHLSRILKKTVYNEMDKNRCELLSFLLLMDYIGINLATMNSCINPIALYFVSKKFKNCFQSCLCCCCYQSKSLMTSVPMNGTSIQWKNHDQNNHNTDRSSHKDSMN
Briefly: Inhibition of [125I]ET-1 binding to membranes of CHO cells expressing human recombinant ETA receptors. The procedure: (§1) 1) Inhibition of Endothelin Binding to Membranes from CHO Cells Carrying Human ET Receptors:
(§2) For competition binding studies, membranes of CHO cells expressing human recombinant ETA or ETB receptors were used. Microsomal membranes from recombinant CHO cells were prepared and the binding assay made as previously described (Breu V., et al, FEBS Lett 1993; 334:210).
(§3) The assay was performed in 200 uL 50 mM Tris/HCl buffer, pH 7.4, including 25 mM MnCl2, 1 mM EDTA and 0.5% (w/v) BSA in polypropylene microtiter plates. […] After 2 h, the membranes were filtered on filterplates containing GF/C filters (Unifilterplates from Canberra Packard S.A. Zürich, Switzerland). To each well, 50 uL of scintillation cocktail was added (MicroScint 20, Canberra Packard S.A. Zürich, Switzerland) and the filter plates counted in a microplate counter (TopCount, Canberra Packard S.A. Zürich, Switzerland).
(§4) All the test compounds were dissolved, diluted and added in DMSO.

Assay [2] has as its target T2, human recombinant ETB receptors (Homo sapiens, UniProt P24530).
T2 construct: expressed in transfected cells; host or cells: CHO cells (microsomal membranes)
T2 sequence (P24530 27-442): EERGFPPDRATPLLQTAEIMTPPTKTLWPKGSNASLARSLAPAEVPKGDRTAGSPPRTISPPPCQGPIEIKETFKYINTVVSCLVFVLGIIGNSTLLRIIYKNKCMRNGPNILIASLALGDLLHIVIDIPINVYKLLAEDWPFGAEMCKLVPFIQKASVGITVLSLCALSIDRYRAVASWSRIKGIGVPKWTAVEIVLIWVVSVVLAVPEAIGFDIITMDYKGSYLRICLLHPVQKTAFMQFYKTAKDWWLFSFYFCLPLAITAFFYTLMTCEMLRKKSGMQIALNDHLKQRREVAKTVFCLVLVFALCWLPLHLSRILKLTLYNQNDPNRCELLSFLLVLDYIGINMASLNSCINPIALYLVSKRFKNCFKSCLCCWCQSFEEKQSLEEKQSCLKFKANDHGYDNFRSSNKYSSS
In words: Inhibition of [125I]ET-1 binding to membranes of CHO cells expressing human recombinant ETB receptors. The procedure:
as §1, §2, §3, §4

Assay [3] deals with T3, ETA receptors (rat aortic rings) (Rattus norvegicus, UniProt P26684).
T3 construct: The thoracic aorta or trachea were excised, dissected and cut in 3-5 mm rings; from tissue; host or cells: thoracic aorta rings of adult Wistar rats, endothelium removed
T3 sequence (P26684 21-426): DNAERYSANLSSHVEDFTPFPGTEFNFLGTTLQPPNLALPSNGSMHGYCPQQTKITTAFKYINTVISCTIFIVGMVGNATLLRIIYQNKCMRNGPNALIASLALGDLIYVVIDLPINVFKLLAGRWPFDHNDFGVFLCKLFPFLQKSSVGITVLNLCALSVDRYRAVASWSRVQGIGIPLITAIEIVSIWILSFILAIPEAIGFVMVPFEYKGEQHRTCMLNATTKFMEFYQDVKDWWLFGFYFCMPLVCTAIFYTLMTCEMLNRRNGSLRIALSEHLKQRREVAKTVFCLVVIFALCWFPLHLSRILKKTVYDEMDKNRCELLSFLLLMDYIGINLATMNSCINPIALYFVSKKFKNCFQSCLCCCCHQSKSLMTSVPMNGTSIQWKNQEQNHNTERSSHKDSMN
In words: Inhibition of endothelin-1-induced contraction on isolated rat aortic rings. Conditions: read-out: pA2 value Aorta (converted). The procedure:
(§5) 2) Inhibition of Endothelin-Induced Contractions on Isolated Rat Aortic Rings (ETA Receptors) and Rat Tracheal Rings (ETB Receptors):
(§6) The functional inhibitory potency of the endothelin antagonists was assessed by their inhibition of the contraction induced by endothelin-1 on rat aortic rings (ETA receptors) and of the contraction induced by sarafotoxin S6c on rat tracheal rings (ETB receptors). Adult Wistar rats were anesthetized and exsanguinated. The thoracic aorta or trachea were excised, dissected and cut in 3-5 mm rings. The endothelium/epithelium was removed by gentle rubbing of the intimal surface. Each ring was suspended in a 10 ml isolated organ bath filled with Krebs-Henseleit solution (in mM; NaCl 115, KCl 4.7, MgSO4 1.2, KH2PO4 1.5, NaHCO3 25, CaCl2 2.5, glucose 10) kept at 37° C. and gassed with 95% O2 and 5% CO2. The rings were connected to force transducers and isometric tension was recorded (EMKA Technologies SA, Paris, France). The rings were stretched to a resting tension of 3 g (aorta) or 2 g (trachea). […] The functional inhibitory potency of the test compound was assessed by calculating the concentration ratio, i.e. the shift to the right of the EC50 induced by different concentrations of test compound. […]

The target in assay [4] is T4, ETB receptors (rat tracheal rings) (Rattus norvegicus, UniProt P21451).
T4 construct: The thoracic aorta or trachea were excised, dissected and cut in 3-5 mm rings; from tissue; host or cells: tracheal rings of adult Wistar rats, epithelium removed
T4 sequence (P21451 27-442): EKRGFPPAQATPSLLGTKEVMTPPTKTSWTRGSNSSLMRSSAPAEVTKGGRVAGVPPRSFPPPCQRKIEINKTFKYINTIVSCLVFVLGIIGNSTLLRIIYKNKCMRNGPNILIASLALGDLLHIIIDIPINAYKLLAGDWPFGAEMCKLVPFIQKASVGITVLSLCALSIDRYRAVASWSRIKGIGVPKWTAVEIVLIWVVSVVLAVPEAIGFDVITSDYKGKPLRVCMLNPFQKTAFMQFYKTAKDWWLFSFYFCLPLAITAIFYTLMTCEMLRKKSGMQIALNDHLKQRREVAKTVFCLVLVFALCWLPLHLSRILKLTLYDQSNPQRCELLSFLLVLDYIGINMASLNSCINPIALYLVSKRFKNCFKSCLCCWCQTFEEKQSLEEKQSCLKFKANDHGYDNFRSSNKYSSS
In words: Inhibition of sarafotoxin S6c-induced contraction on isolated rat tracheal rings. Conditions: contraction induced by sarafotoxin S6c, read-out: pA2 value Trachea (converted). The method, then: as §5, §6

A word on the pIC50: it is the IC50 on a negative log10 scale, so that one unit is a factor of ten. Regarding `COCCNS(=O)(=O)Nc1ncnc(OCCOc2ncc(Br)cn2)c1Oc1cc(OC)ccc1Cl` [Example 1, 2-methoxy-ethanesulfamic acid [6-[2-(5-bromo-pyrimidin-2-yloxy)-ethoxy]-5-(2-chloro-5-methoxy-phenoxy)-pyrimidin-4-yl]-amide], the negative logarithm of the IC50 (pIC50) in assay [1] is 9.55; in assay [2], 6.76. Further, the Kb in assay [3] is 0.126 µM; in assay [4], 5.13 µM.

Take `COCCNS(=O)(=O)Nc1ncnc(OCCOc2ncc(SC)cn2)c1-c1ccc(Br)cc1` [Example 3, 2-Methoxy-ethanesulfamic acid {5-(4-bromophenyl)-6-[2-(5-methylsulfanyl-pyrimidin-2-yloxy)-ethoxy]-pyrimidin-4-yl}-amide]: the results for the pIC50 in assay [1] and in assay [2] were 9.70 and 6.92, respectively.

For `COCCNS(=O)(=O)Nc1ncnc(OCCOc2ncc(Br)cn2)c1-c1ccc(Br)cc1` [Example 2, 2-methoxy-ethanesulfamic acid {5-(4-bromophenyl)-6-[2-(5-bromopyrimidin-2-yloxy)-ethoxy]-pyrimidin-4-yl}-amide], the pIC50 is 9.66 in assay [1] and 6.65 in assay [2]. The Kb was 0.00331 µM in assay [3] and above 10 µM in assay [4].

On to `COCCNS(=O)(=O)Nc1ncnc(OCCOc2ncc(OC)cn2)c1-c1ccc(Br)cc1` [Example 4, 2-Methoxy-ethanesulfamic acid {5-(4-bromophenyl)-6-[2-(5-methoxypyrimidin-2-yloxy)-ethoxy]-pyrimidin-4-yl}-amide], for which the pIC50 in assay [1] was 8.90; in assay [2] it was 6.25.
